Laboratory results from patent publication US20210053957A1, “HERBICIDAL COMPOUNDS” (SYNGENTA PARTICIPATIONS AG, priority 2018, published 2021).

Key:
Experiment in all cases: Post-emergence efficacy, glasshouse spray test
Type in all cases: in vivo
[1] = tested on: Amaranthus palmeri (AMAPA); settings: Amaranthus palmeri, post-emergence, 312 h, evaluated after 13 days, read-out: Control of weed species after post-emergence application, AMAPA (100=total damage to plant; 0=no damage to plant); for pest or weed control at 500 g/ha: Application Rate 500 g/Ha; for pest or weed control at 125 g/ha: Application Rate 125 g/Ha
Procedure: (§1) Seeds of a variety of test species were sown in standard soil in pots. After cultivation for 14 days (post-emergence) under controlled conditions in a glasshouse (at 24/16° C. day/night; 14 hours light; 65% humidity), the plants were sprayed with an aqueous spray solution derived from the dissolution of the technical active ingredient formula (I) in a small amount of acetone and a special solvent and emulsifier mixture referred to as IF50 (11.12% Emulsogen EL360 TM+44.44% N-methyl pyrrolidone+44.44% Dowanol DPM glycolether), to create a 50 g/l solution which was then diluted to required concentration using 0.25% or 1% Empicol ESC70 (Sodium lauryl ether sulphate)+1% ammonium sulphate as diluent. The test plants were then grown in a glasshouse under controlled conditions (at 24/16° C., day/night; 14 hours light; 65% humidity) and watered twice daily. After 13 days the test was evaluated (100=total damage to plant; 0=no damage to plant).
(§2) Ipomoea hederacea (IPOHE), Euphorbia heterophylla (EPHHL), Chenopodium album (CHEAL), Amaranthus palmeri (AMAPA), Lolium perenne (LOLPE), Digitaria sanguinalis (DIGSA), Eleusine indica (ELEIN), Echinochloa crus-galli (ECHCG), Setaia fabei (SETFA)

[2] = tested on: Chenopodium album (CHEAL); settings: Chenopodium album, post-emergence, 312 h, evaluated after 13 days, read-out: Control of weed species after post-emergence application, CHEAL (100=total damage to plant; 0=no damage to plant); for pest or weed control at 500 g/ha: Application Rate 500 g/Ha; for pest or weed control at 125 g/ha: Application Rate 125 g/Ha
Procedure: as §1, §2

[3] = tested on: Digitaria sanguinalis (DIGSA); settings: Digitaria sanguinalis, post-emergence, 312 h, evaluated after 13 days, read-out: Control of weed species after post-emergence application, DIGSA (100=total damage to plant; 0=no damage to plant); for pest or weed control at 500 g/ha: Application Rate 500 g/Ha; for pest or weed control at 125 g/ha: Application Rate 125 g/Ha
Procedure: as §1, §2

[4] = tested on: Echinochloa crus-galli (ECHCG); settings: Echinochloa crus-galli, post-emergence, 312 h, evaluated after 13 days, read-out: Control of weed species after post-emergence application, ECHCG (100=total damage to plant; 0=no damage to plant); for pest or weed control at 500 g/ha: Application Rate 500 g/Ha; for pest or weed control at 125 g/ha: Application Rate 125 g/Ha
Procedure: as §1, §2

Eleusine indica (ELEIN) = settings: Eleusine indica, post-emergence, 312 h, evaluated after 13 days, read-out: Control of weed species after post-emergence application, ELEIN (100=total damage to plant; 0=no damage to plant); for pest or weed control at 500 g/ha: Application Rate 500 g/Ha; for pest or weed control at 125 g/ha: Application Rate 125 g/Ha
Procedure: as §1, §2

[5] = tested on: Euphorbia heterophylla (EPHHL); settings: Euphorbia heterophylla, post-emergence, 312 h, evaluated after 13 days, read-out: Control of weed species after post-emergence application, EPHHL (100=total damage to plant; 0=no damage to plant); for pest or weed control at 500 g/ha: Application Rate 500 g/Ha
Procedure: as §1, §2

[6] = tested on: Ipomoea hederacea (IPOHE); settings: Ipomoea hederacea, post-emergence, 312 h, evaluated after 13 days, read-out: Control of weed species after post-emergence application, IPOHE (100=total damage to plant; 0=no damage to plant); for pest or weed control at 500 g/ha: Application Rate 500 g/Ha; for pest or weed control at 125 g/ha: Application Rate 125 g/Ha
Procedure: as §1, §2

Lolium perenne (LOLPE) = settings: Lolium perenne, post-emergence, 312 h, evaluated after 13 days, read-out: Control of weed species after post-emergence application, LOLPE (100=total damage to plant; 0=no damage to plant); for pest or weed control at 500 g/ha: Application Rate 500 g/Ha; for pest or weed control at 125 g/ha: Application Rate 125 g/Ha
Procedure: as §1, §2

Setaia fabei (SETFA) = settings: Setaria faberi, post-emergence, 312 h, evaluated after 13 days, read-out: Control of weed species after post-emergence application, SETFA (100=total damage to plant; 0=no damage to plant); for pest or weed control at 500 g/ha: Application Rate 500 g/Ha; for pest or weed control at 125 g/ha: Application Rate 125 g/Ha
Procedure: as §1, §2

SMILES | pest or weed control at 500 g/ha [1] [%] | pest or weed control at 500 g/ha [2] [%] | pest or weed control at 500 g/ha [3] [%] | pest or weed control at 500 g/ha [4] [%] | pest or weed control at 500 g/ha (Eleusine indica (ELEIN)) [%] | pest or weed control at 500 g/ha [5] [%] | pest or weed control at 500 g/ha [6] [%] | pest or weed control at 500 g/ha (Lolium perenne (LOLPE)) [%] | pest or weed control at 500 g/ha (Setaia fabei (SETFA)) [%] | pest or weed control at 125 g/ha [1] [%] | pest or weed control at 125 g/ha [2] [%] | pest or weed control at 125 g/ha [3] [%] | pest or weed control at 125 g/ha [4] [%] | pest or weed control at 125 g/ha (Eleusine indica (ELEIN)) [%] | pest or weed control at 125 g/ha ([5]; Application Rate 125 g/Ha) [%] | pest or weed control at 125 g/ha [6] [%] | pest or weed control at 125 g/ha (Lolium perenne (LOLPE)) [%] | pest or weed control at 125 g/ha (Setaia fabei (SETFA)) [%]
CC(C[n+]1ccc(-c2ncco2)cn1)C(=O)O (stereo not drawn) [Compound A88] | 100 | 100 | 70 | 80 | 30 | 50 | 30 | 30 | 60 |  |  |  |  |  |  |  |  | 
O=S(=O)([O-])CCC[n+]1ccc(-c2ncco2)cn1 [Compound A3, 3-(4-oxazol-2-ylpyridazin-1-ium-1-yl)propane-1-sulfonate] |  |  |  |  |  |  |  |  |  | 20 | 60 | 80 | 70 | 50 | 70 | 40 | 20 | 80
Cc1cc(-c2cc[n+](CCS(=O)(=O)[O-])nc2)sn1 [Compound A35] | 100 | 100 | 50 | 50 | 70 | 90 | 50 | 70 | 60 |  |  |  |  |  |  |  |  | 
COP(=O)([O-])C[n+]1ccc(-c2ncco2)cn1 [Compound A103] | 70 | 40 | 90 | 70 | 60 | 70 | 40 | 30 | 80 |  |  |  |  |  |  |  |  | 
Cn1nccc1-c1cc[n+](CCCS(=O)(=O)[O-])nc1 [Compound A4] | 10 | 30 | 30 | 20 | 10 | 40 | 10 | 0 | 20 |  |  |  |  |  |  |  |  | 
O=S(=O)([O-])CC[n+]1ccc(-c2cocn2)cn1 [Compound A22, 2-(4-oxazol-4-ylpyridazin-1-ium-1-yl)ethanesulfonate] | 30 | 20 | 20 | 20 | 20 | 30 | 10 | 10 | 20 |  |  |  |  |  |  |  |  | 
COC(=O)[C@@H](N)CC[n+]1ccc(-c2ncco2)cn1 [Compound A109] | 90 | 90 |  |  |  | 60 | 0 | 10 | 90 |  |  |  |  |  |  |  |  | 
CCOP(=O)(CC[n+]1ccc(-c2ncco2)cn1)OCC [Compound A75] |  |  |  |  |  |  |  |  |  | 0 | 40 | 10 | 0 | 0 |  | 0 | 0 | 0
O=P(O)(O)CCC[n+]1ccc(-c2ncco2)cn1 [Compound A78] | 70 | 80 | 60 | 20 | 0 |  | 50 | 10 | 50 |  |  |  |  |  |  |  |  | 
Cc1nsc(-c2cc[n+](CCC(=O)O)nc2)c1C [Compound A58] | 80 | 50 | 90 | 70 | 40 |  | 20 | 30 | 90 |  |  |  |  |  |  |  |  | 
